Experimental data as given in patent publication US4168206A, “Impregnated disk method for testing antifungal susceptibility” (Philadelphia College of Osteopathic Medicine, priority 1977, dated 1979).
Values after ≈ are worked out from the molar mass of the structure shown.

Legend:
[1] = system: Candida albicans; assay: MIC by broth dilution method, Candida albicans; type: cell-based; details: for MIC: Candida albicans
Source text: (§1) The preparation of the nutrient media, the antifungal agents and the fungi to be tested in the present invention are similar to those reported in S. Shadomy and A. Espinel-Ingroff, "Susceptibility Testing Of Antifungal Agents", Ch. 63, pp. 569-574 in E. H. Lennett, E. H. Spaulding, and J. P. Truant, Eds., Manual Of Clinical Microbiology, 2nd Ed., American Society for Microbiology, Washington, D.C. (1974). This publication describes the susceptibility testing of antifungal agents, namely, amphotericin B, nystatin and 5-fluoro-cytosine (5-FC), by the "broth dilution method" and the "semisolid agar dilution method". At pages 570-571, it is stated:
(§2) In 10 duplicate runs with each strain tested, the variation in minimum inhibitory concentration averaged ±0.05 μg/ml.
(§3) *Broth dilution method conducted in accordance with S. Shadomy and E.
(§4) Espinel-Ingroff, "Susceptibility Testing of Antifungal Agents", Ch. 63,
(§5) pp. 569-574 in E. H. Spaulding and J. P. Truant, Eds., Manual Of Clinical
(§6) Microbiology, 2nd Ed., American Society for Microbiology, Washington, […]

[2] = system: Geotrichum candidum; assay: MIC by broth dilution method, Geotrichum candidum; type: cell-based; details: broth dilution method
Source text: as §1, §2, §3, §4, §5, §6

[3] = system: Geotrichum candidum; assay: MIC by impregnated disk method, Geotrichum candidum; type: cell-based; details: disk method
Procedure: (§7) Stock solutions of the antifungal agents to be tested are preferably prepared by diluting the antifungal agents in the proper nutrient medium. It is presently preferred to prepare dilutions in 10 ml of the proper medium to give the following final concentrations when applied to the disks (all quantities in micrograms per milliliter): 0.05, 0.08, 0.09, 0.1; 0.1 increment increases to 0.9, 1.0; 0.5 increment increases to 10.0; and 12.0, 14.0, 20.0, 25.0 and 50.0. Disks have been prepared by placing 0.05 ml of the above dilutions of antifungal agent containing medium on 6.5 mm diameter disks in 0.01 or 0.02 ml increments. The impregnated disks are then allowed to dry at a temperature preferably below about 10° C. […] The disks may also be dried by a lyophilization or freeze drying process.
(§8) To perform the tests in accordance with the present inventions, disks impregnated with various concentrations of antifungal agent and nutrient medium and a control disk impregnated only with the corresponding nutrient medium are placed on the fungus to be tested which has been applied to the non-nutrient medium. The disks are the inoculated non-nutrient medium are then incubated at a suitable temperature for a sufficient time to promote growth of the fungus. Any temperature is suitable if it will promote growth of the fungus without adversely affecting the fungus or the activity of the antifungal agent or agents tested. The time of incubation can be determined by observing the extent of growth around the control disk. […] The zones of growth or inhibition around the disks were read at 6, 12, 24, 36 and 48 hours after the disks were placed on the tested fungus.
(§9) The minimum inhibitory concentration is defined as the lowest concentration of antifungal agent which inhibits visible growth. […]
(§10) Several test disks and a control disk were placed in each petri dish containing the inoculated agar. The disks and petri dishes were then incubated at 29° C. and the minimum inhibitory concentration of the various concentrations of the antifungal agents were read at 6, 12, 24, 36 and 48 hours. […]

[4] = system: C. tropicalis; assay: MIC by broth dilution method, Candida tropicalis; type: cell-based; details: C. tropicalis, broth dilution method
Source text: as §1, §2, §3, §4, §5, §6

[5] = system: Saccharomyces cerevisiae; assay: MIC by impregnated disk method, Saccharomyces cerevisiae; type: cell-based; details: for MIC: Saccharomyces cerevisiae
Procedure: as §7, §8
(§11) The minimum inhibitory concentration is defined as the lowest concentration of antifungal agent which inhibits visible growth. The disks containing concentrations of antifungal agents below the minimum inhibitory concentration show circumscribed growth of the fungus around the disk. Disks containing concentrations of antifungal agent at or above the minimum inhibitory concentration show no circumscribed growth.
(§12) Clinical isolates of various fungi listed in Table 1 were obtained from different patients diagnosed as having fungal infections. The fungal inocula were prepared by using a 24-48 hour cultures grown in yeast nitrogen base containing 1% glucose and 0.15% asparagine. After centrifuging, the supernatant was removed, the sedimented cells were washed twice with sterile distilled water and a cell suspension was adjusted to 80% transmission at 520 nm using a Beckman DB-GT grating spectrophotometer.
(§13) Sterile liquified 2% purified agar was placed in petri dishes and allowed to harden. The surface of the agar was inoculated with a sterile cotton swab saturated with a suspension of an organism. The uniformly swabbed plates were then allowed to dry.
(§14) Disks were prepared using the dilutions described above for amphotericin B, nystatin and 5-fluorocytosine. 0.05 ml of the dilutions of each antifungal agent diluted with the appropriate nutrient medium were pipetted on 6.5 mm diameter disks. The disks were dried at 4° C. after each application. Control disks were also prepared.
(§15) Several test disks and a control disk were placed in each petri dish containing the inoculated agar. The disks and petri dishes were then incubated at 29° C. and the minimum inhibitory concentration of the various concentrations of the antifungal agents were read at 6, 12, 24, 36 and 48 hours.
as §2

[6] = system: Cryptococcus neoformans; assay: MIC by broth dilution method, Cryptococcus neoformans; type: cell-based; details: for MIC: Cryptococcus neoformans
Source text: as §1, §2, §3, §4, §5, §6

[7] = system: C. parapsilosis; assay: MIC by impregnated disk method, Candida parapsilosis; type: cell-based; details: for MIC: Lodderomyces parapsilosis
Procedure: as §7, §8, §11, §12, §13, §14, §15, §2

[8] = system: Saccharomyces cerevisiae; assay: MIC by broth dilution method, Saccharomyces cerevisiae; type: cell-based; details: for MIC: Saccharomyces cerevisiae
Source text: as §1, §2, §3, §4, §5, §6

[9] = system: Torulopsis glabrata; assay: MIC by broth dilution method, Torulopsis glabrata; type: cell-based; details: Torulopsis glabrata, broth dilution method
Source text: as §1, §2, §3, §4, §5, §6

[10] = system: Trichosporon sp.; assay: MIC by broth dilution method, Trichosporon sp.; type: cell-based; details: Trichosporon sp., broth dilution method
Source text: as §1, §2, §3, §4, §5, §6

[11] = system: C. parapsilosis; assay: MIC by broth dilution method, Candida parapsilosis; type: cell-based; details: for MIC: Lodderomyces parapsilosis
Source text: as §1, §2, §3, §4, §5, §6

[12] = system: Cryptococcus neoformans; assay: MIC by impregnated disk method, Cryptococcus neoformans; type: cell-based; details: for MIC: Cryptococcus neoformans
Procedure: as §7, §8, §11, §12, §13, §14, §15, §2

[13] = system: Torulopsis glabrata; assay: MIC by impregnated disk method, Torulopsis glabrata; type: cell-based; details: Torulopsis glabrata, disk method
Procedure: as §7, §8, §9, §10

[14] = system: Trichosporon sp.; assay: MIC by impregnated disk method, Trichosporon sp.; type: cell-based; details: Trichosporon sp., disk method
Procedure: as §7, §8, §9, §10

[15] = system: Candida albicans; assay: MIC by impregnated disk method, Candida albicans; type: cell-based; details: for MIC: Candida albicans
Procedure: as §7, §8, §11, §12, §13, §14, §15, §2

[16] = system: C. tropicalis; assay: MIC by impregnated disk method, Candida tropicalis; type: cell-based; details: C. tropicalis, disk method
Procedure: as §7, §8, §9, §10

[17] = cited from earlier work
[18] = read-out: Minimum Inhibitory Concentration, Broth
[19] = read-out: Minimum Inhibitory Concentration, Disk
[20] = Saccharomyces cerevisiae isolate 1
[21] = Cryptococcus neoformans isolate 1

Nc1nc(=O)[nH]cc1F [5-Fluorocytosine, 5-fluorocytosine]
MIC ([1]; isolate 1, read-out: Minimum Inhibitory Concentration, Broth): 6.5 µg/mL (≈ 50.4 µM) | MIC ([1]; isolate 2, read-out: Minimum Inhibitory Concentration, Broth): 0.6 µg/mL (≈ 4.65 µM) | MIC ([1]; isolate 3, read-out: Minimum Inhibitory Concentration, Broth): 3 µg/mL (≈ 23.2 µM) | MIC ([1]; isolate 4, read-out: Minimum Inhibitory Concentration, Broth): 3.5 µg/mL (≈ 27.1 µM) | MIC ([1]; isolate 5, read-out: Minimum Inhibitory Concentration, Broth): 0.7 µg/mL (≈ 5.42 µM) | MIC ([1]; isolate 6, read-out: Minimum Inhibitory Concentration, Broth): 0.7 µg/mL (≈ 5.42 µM) | MIC [2, 18]: 3 µg/mL (≈ 23.2 µM) | MIC [3, 19]: 2.5 µg/mL (≈ 19.4 µM) | MIC ([4]; Candida tropicalis, read-out: Minimum Inhibitory Concentration, Broth): 6 µg/mL (≈ 46.5 µM) | MIC ([5]; S. cerevisiae isolate 2, read-out: Minimum Inhibitory Concentration, Disk): 0.8 µg/mL (≈ 6.2 µM) | MIC ([5]; Saccharomyces cerevisiae isolate 1, read-out: Minimum Inhibitory Concentration, Disk): 1.5 µg/mL (≈ 11.6 µM) | MIC ([6]; C. neoformans isolate 2, read-out: Minimum Inhibitory Concentration, Broth): 12 µg/mL (≈ 93 µM) | MIC ([6]; Cryptococcus neoformans isolate 1, read-out: Minimum Inhibitory Concentration, Broth): 8.5 µg/mL (≈ 65.8 µM) | MIC ([7]; C. parapsilosis isolate 1, read-out: Minimum Inhibitory Concentration, Disk): 0.9 µg/mL (≈ 6.97 µM) | MIC ([7]; C. parapsilosis isolate 2, read-out: Minimum Inhibitory Concentration, Disk): 1.5 µg/mL (≈ 11.6 µM) | MIC ([8]; S. cerevisiae isolate 2, read-out: Minimum Inhibitory Concentration, Broth): 1 µg/mL (≈ 7.75 µM) | MIC ([8]; Saccharomyces cerevisiae isolate 1, read-out: Minimum Inhibitory Concentration, Broth): 2.5 µg/mL (≈ 19.4 µM) | MIC ([9]; Nakaseomyces glabratus, read-out: Minimum Inhibitory Concentration, Broth): 0.7 µg/mL (≈ 5.42 µM) | MIC [10, 18]: 50 µg/mL (≈ 387 µM) | MIC ([11]; C. parapsilosis isolate 1, read-out: Minimum Inhibitory Concentration, Broth): 0.8 µg/mL (≈ 6.2 µM) | MIC ([11]; C. parapsilosis isolate 2, read-out: Minimum Inhibitory Concentration, Broth): 2 µg/mL (≈ 15.5 µM) | MIC ([12]; C. neoformans isolate 2, read-out: Minimum Inhibitory Concentration, Disk): 15 µg/mL (≈ 116 µM) | MIC ([12]; Cryptococcus neoformans isolate 1, read-out: Minimum Inhibitory Concentration, Disk): 10 µg/mL (≈ 77.5 µM) | MIC ([13]; Nakaseomyces glabratus, read-out: Minimum Inhibitory Concentration, Disk): 0.8 µg/mL (≈ 6.2 µM) | MIC [14, 19]: 50 µg/mL (≈ 387 µM) | MIC ([15]; isolate 1, read-out: Minimum Inhibitory Concentration, Disk): 8.5 µg/mL (≈ 65.8 µM) | MIC ([15]; isolate 2, read-out: Minimum Inhibitory Concentration, Disk): 0.3 µg/mL (≈ 2.32 µM) | MIC ([15]; isolate 3, read-out: Minimum Inhibitory Concentration, Disk): 2 µg/mL (≈ 15.5 µM) | MIC ([15]; isolate 4, read-out: Minimum Inhibitory Concentration, Disk): 6 µg/mL (≈ 46.5 µM) | MIC ([15]; isolate 5, read-out: Minimum Inhibitory Concentration, Disk): 0.8 µg/mL (≈ 6.2 µM) | MIC ([15]; isolate 6, read-out: Minimum Inhibitory Concentration, Disk): 0.5 µg/mL (≈ 3.87 µM) | MIC ([16]; Candida tropicalis, read-out: Minimum Inhibitory Concentration, Disk): 7.5 µg/mL (≈ 58.1 µM)

C[C@@H]1[C@H](O)[C@@H](C)/C=C/C=C/CC/C=C/C=C/C=C/C=C/C(O[C@H]2O[C@H](C)[C@@H](O)[C@H](N)[C@@H]2O)CC2O[C@](O)(CC(O)C(O)CCC(O)CC(O)CC(O)CC(=O)O[C@H]1C)CC(O)C2C(=O)O (stereo partly drawn) [Nystatin, nystatin]
Minimum Inhibitory Concentration, Broth ([1]; isolate 1): 1.50 µg/mL | Minimum Inhibitory Concentration, Broth ([1]; isolate 2): 5.00 µg/mL | Minimum Inhibitory Concentration, Broth ([1]; isolate 3): 1.50 µg/mL | Minimum Inhibitory Concentration, Broth ([1]; isolate 4): 3.50 µg/mL | Minimum Inhibitory Concentration, Broth ([1]; isolate 5): 4.00 µg/mL | Minimum Inhibitory Concentration, Broth ([1]; isolate 6): 6.00 µg/mL | Minimum Inhibitory Concentration, Broth ([1]; isolate 7): 0.20 µg/mL | Minimum Inhibitory Concentration, Broth [2]: 4.50 µg/mL | Minimum Inhibitory Concentration, Disk [3]: 5.00 µg/mL | Minimum Inhibitory Concentration, Broth [4]: 6.00 µg/mL | Minimum Inhibitory Concentration, Disk ([5]; S. cerevisiae isolate 2): 1.00 µg/mL | Minimum Inhibitory Concentration, Disk [5, 20]: 2.00 µg/mL | Minimum Inhibitory Concentration, Broth ([6]; C. neoformans isolate 2): 3.00 µg/mL | Minimum Inhibitory Concentration, Broth [6, 21]: 2.50 µg/mL | Minimum Inhibitory Concentration, Disk ([7]; C. parapsilosis isolate 1): 3.50 µg/mL | Minimum Inhibitory Concentration, Disk ([7]; C. parapsilosis isolate 2): 4.50 µg/mL | Minimum Inhibitory Concentration, Broth ([8]; S. cerevisiae isolate 2): 2.00 µg/mL | Minimum Inhibitory Concentration, Broth [8, 20]: 2.50 µg/mL | Minimum Inhibitory Concentration, Broth [9]: 4.50 µg/mL | Minimum Inhibitory Concentration, Broth [10]: 3.00 µg/mL | Minimum Inhibitory Concentration, Broth ([11]; C. parapsilosis isolate 1): 4.50 µg/mL | Minimum Inhibitory Concentration, Broth ([11]; C. parapsilosis isolate 2): 5.00 µg/mL | stability in acid ([17]; in the presence of acid): unstable in the presence of acid | thermal stability ([17]; upon incubation): subject to thermal destruction upon incubation | solubility in water ([17]; water): insoluble in water | Minimum Inhibitory Concentration, Disk ([12]; C. neoformans isolate 2): 3.00 µg/mL | Minimum Inhibitory Concentration, Disk [12, 21]: 2.00 µg/mL | Minimum Inhibitory Concentration, Disk [13]: 3.00 µg/mL | Minimum Inhibitory Concentration, Disk [14]: 3.50 µg/mL | Minimum Inhibitory Concentration, Disk ([15]; isolate 1): 1.50 µg/mL | Minimum Inhibitory Concentration, Disk ([15]; isolate 2): 4.50 µg/mL | Minimum Inhibitory Concentration, Disk ([15]; isolate 3): 1.50 µg/mL | Minimum Inhibitory Concentration, Disk ([15]; isolate 4): 3.50 µg/mL | Minimum Inhibitory Concentration, Disk ([15]; isolate 5): 4.00 µg/mL | Minimum Inhibitory Concentration, Disk ([15]; isolate 6): 6.50 µg/mL | Minimum Inhibitory Concentration, Disk ([15]; isolate 7): 0.30 µg/mL | Minimum Inhibitory Concentration, Disk [16]: 5.50 µg/mL
